In PMC5218480 (PLoS ONE, 2017):

Test system: MV-4-11 cells
Assay: Gene expression microarray analysis (Affymetrix PrimeView) and GSEA
Type: cell-based, human
Parameters: RFU PODN (11730768_x_at) / Fold change /veh PODN (11730768_x_at) / RFU LINC00158 (11744669_a_at) / Fold change /veh LINC00158 (11744669_a_at) / RFU DUSP10 (11751237_a_at) / Fold change /veh DUSP10 (11751237_a_at) / RFU ID3 (11757404_x_at) / Fold change /veh ID3 (11757404_x_at) / RFU PLEKHG5 (11737974_s_at) / Fold change /veh PLEKHG5 (11737974_s_at) / RFU LRRC4B (11730491_at) / Fold change /veh LRRC4B (11730491_at) / RFU GIMAP4 (11747438_a_at) / Fold change /veh GIMAP4 (11747438_a_at) / RFU KRT8 (11758183_x_at) / Fold change /veh KRT8 (11758183_x_at) / RFU CNN1 (11734310_a_at) / Fold change /veh CNN1 (11734310_a_at) / RFU VPS37D (11726825_at) / Fold change /veh VPS37D (11726825_at) / RFU C10orf10 (11716522_x_at) / Fold change /veh C10orf10 (11716522_x_at) / RFU KIR2DL2 /// KIR2DL4 /// KIR2DL5A /// KIR2DL5B /// KIR2DS1 /// KIR2DS2 /// KIR2DS3 /// KIR2DS4 /// KIR3DL3 /// KIR3DL3 /// KIR3DS1 (11738374_at) / Fold change /veh KIR2DL2 /// KIR2DL4 /// KIR2DL5A /// KIR2DL5B /// KIR2DS1 /// KIR2DS2 /// KIR2DS3 /// KIR2DS4 /// KIR3DL3 /// KIR3DL3 /// KIR3DS1 (11738374_at) / RFU C1QL1 (11718748_at) / Fold change /veh C1QL1 (11718748_at) / RFU TMPRSS4 (11747572_a_at) / Fold change /veh TMPRSS4 (11747572_a_at) / RFU HAMP (11756126_x_at) / Fold change /veh HAMP (11756126_x_at) / RFU RNFT2 (11725882_a_at) / Fold change /veh RNFT2 (11725882_a_at) / RFU NR4A2 (11747474_a_at) / Fold change /veh NR4A2 (11747474_a_at) / RFU ABCC12 (11746883_a_at) / Fold change /veh ABCC12 (11746883_a_at) / RFU TMEM136 (11760407_x_at) / Fold change /veh TMEM136 (11760407_x_at) / RFU CLDN22 /// WWC2 (11732394_at) / Fold change /veh CLDN22 /// WWC2 (11732394_at) / RFU HLA-DPB1 (11760878_x_at) / Fold change /veh HLA-DPB1 (11760878_x_at) / RFU SPINT1 (11716480_a_at) / Fold change /veh SPINT1 (11716480_a_at) / RFU GAP43 (11754022_s_at) / Fold change /veh GAP43 (11754022_s_at) / RFU A4GNT (11735810_at) / Fold change /veh A4GNT (11735810_at) / RFU PRB3 (11715151_x_at) / Fold change /veh PRB3 (11715151_x_at) / RFU TUBB4B (11761932_at) / Fold change /veh TUBB4B (11761932_at) / RFU CAPN14 (11732068_a_at) / Fold change /veh CAPN14 (11732068_a_at) / RFU TMCC2 (11721928_a_at) / Fold change /veh TMCC2 (11721928_a_at) / RFU IRGQ (11745062_a_at) / Fold change /veh IRGQ (11745062_a_at) / RFU FAM174B (11720279_a_at) / Fold change /veh FAM174B (11720279_a_at) / RFU TMPRSS4 (11748680_a_at) / Fold change /veh TMPRSS4 (11748680_a_at) / RFU FAM212B (11763350_a_at) / Fold change /veh FAM212B (11763350_a_at) / RFU PLEKHG5 (11743358_a_at) / Fold change /veh PLEKHG5 (11743358_a_at) / RFU ZSCAN30 (11745921_a_at) / Fold change /veh ZSCAN30 (11745921_a_at) / RFU CMKLR1 (11741424_a_at) / Fold change /veh CMKLR1 (11741424_a_at) / RFU LOC101060620 /// MAPK8IP1 (11723275_at) / Fold change /veh LOC101060620 /// MAPK8IP1 (11723275_at) / RFU SPTSSB (11747773_x_at) / Fold change /veh SPTSSB (11747773_x_at) / RFU PRSS12 (11739890_at) / Fold change /veh PRSS12 (11739890_at) / RFU BIN1 (11741810_x_at) / Fold change /veh BIN1 (11741810_x_at) / RFU WNT11 (11732464_a_at) / Fold change /veh WNT11 (11732464_a_at) / RFU C10orf10 (11716521_a_at) / Fold change /veh C10orf10 (11716521_a_at) / RFU C5orf56 (11738089_at) / Fold change /veh C5orf56 (11738089_at) / RFU CYB561 (11721691_x_at) / Fold change /veh CYB561 (11721691_x_at) / RFU ANKRD19P (11752326_a_at) / Fold change /veh ANKRD19P (11752326_a_at) / RFU OR2T12 /// OR2T33 /// OR2T8 (11738714_s_at) / Fold change /veh OR2T12 /// OR2T33 /// OR2T8 (11738714_s_at) / RFU VCAN (11748164_a_at) / Fold change /veh VCAN (11748164_a_at) / RFU JSRP1 (11732532_at) / Fold change /veh JSRP1 (11732532_at) / RFU KRTAP10-11 (11738290_x_at) / Fold change /veh KRTAP10-11 (11738290_x_at) / RFU MYO3A (11730013_a_at) / Fold change /veh MYO3A (11730013_a_at) / RFU EBF3 (11725865_a_at) / Fold change /veh EBF3 (11725865_a_at) / RFU CAMK2N1 (11719241_x_at) / Fold change /veh CAMK2N1 (11719241_x_at) / RFU C5orf56 (11738088_a_at) / Fold change /veh C5orf56 (11738088_a_at) / RFU OLFML3 (11715873_a_at) / Fold change /veh OLFML3 (11715873_a_at) / RFU LOC100653217 /// NTM (11731650_a_at) / Fold change /veh LOC100653217 /// NTM (11731650_a_at) / RFU MAPK11 (11762145_a_at) / Fold change /veh MAPK11 (11762145_a_at) / RFU FIZ1 (11724087_x_at) / Fold change /veh FIZ1 (11724087_x_at) / RFU OASL (11726364_x_at) / Fold change /veh OASL (11726364_x_at) / RFU SOX15 (11748057_x_at) / Fold change /veh SOX15 (11748057_x_at) / RFU CD79A (11719716_a_at) / Fold change /veh CD79A (11719716_a_at) / RFU HIST1H1D (11736915_at) / Fold change /veh HIST1H1D (11736915_at) / RFU CASKIN2 (11723855_a_at) / Fold change /veh CASKIN2 (11723855_a_at) / RFU LOC730098 (11760151_x_at) / Fold change /veh LOC730098 (11760151_x_at) / RFU OR4N2 (11742367_at) / Fold change /veh OR4N2 (11742367_at) / RFU PRRT2 (11749266_a_at) / Fold change /veh PRRT2 (11749266_a_at) / RFU SNX32 (11753110_a_at) / Fold change /veh SNX32 (11753110_a_at) / RFU CDHR5 (11726645_a_at) / Fold change /veh CDHR5 (11726645_a_at) / RFU RCAN1 (11760418_a_at) / Fold change /veh RCAN1 (11760418_a_at) / RFU FAM167A (11723789_a_at) / Fold change /veh FAM167A (11723789_a_at) / RFU FAM26E (11764081_at) / Fold change /veh FAM26E (11764081_at) / RFU ISYNA1 (11749810_s_at) / Fold change /veh ISYNA1 (11749810_s_at) / RFU ACY1 (11761880_at) / Fold change /veh ACY1 (11761880_at) / RFU 11764098_at / Fold change /veh 11764098_at / RFU SAMD14 (11745864_x_at) / Fold change /veh SAMD14 (11745864_x_at) / RFU NPB (11741838_a_at) / Fold change /veh NPB (11741838_a_at) / RFU TMPRSS6 (11731388_a_at) / Fold change /veh TMPRSS6 (11731388_a_at) / RFU KRTAP10-2 (11738614_at) / Fold change /veh KRTAP10-2 (11738614_at) / RFU ARHGAP8 /// PRR5-ARHGAP8 (11727945_x_at) / Fold change /veh ARHGAP8 /// PRR5-ARHGAP8 (11727945_x_at) / RFU KRTAP5-7 /// NADSYN1 (11734609_at) / Fold change /veh KRTAP5-7 /// NADSYN1 (11734609_at) / RFU RASL12 (11751679_a_at) / Fold change /veh RASL12 (11751679_a_at) / RFU CDKN2B (11736163_a_at) / Fold change /veh CDKN2B (11736163_a_at) / RFU PRF1 (11729649_at) / Fold change /veh PRF1 (11729649_at) / RFU, ZNF638 /// ZNF638-IT1 / Fold change vs veh, ZNF638 /// ZNF638-IT1 / RFU, PANK3 / Fold change vs veh, PANK3 / RFU, SH3YL1 / Fold change vs veh, SH3YL1 / RFU, ZEB2 / Fold change vs veh, ZEB2 / RFU, NRIP1 / Fold change vs veh, NRIP1 / RFU, PTTG1IP / Fold change vs veh, PTTG1IP / RFU, CAPN2 / Fold change vs veh, CAPN2 / RFU, MED14 / Fold change vs veh, MED14 / RFU, SNORA58 / Fold change vs veh, SNORA58 / RFU, C1orf63 / Fold change vs veh, C1orf63 / RFU, LRRFIP1 / Fold change vs veh, LRRFIP1 / RFU, NDUFAF7 / Fold change vs veh, NDUFAF7 / RFU, SLC12A2 / Fold change vs veh, SLC12A2 / RFU, IBTK / Fold change vs veh, IBTK / RFU, ESF1 / Fold change vs veh, ESF1 / Fold change vs veh, TMEM50B / RFU, TAOK1 / Fold change vs veh, TAOK1 / RFU, ACBD3 / Fold change vs veh, ACBD3 / RFU, TMA16 / Fold change vs veh, TMA16 / RFU, RWDD3 / Fold change vs veh, RWDD3 / RFU, BCAT1 / Fold change vs veh, BCAT1 / RFU, EDEM3 / Fold change vs veh, EDEM3 / RFU, TMEM33 / Fold change vs veh, TMEM33 / RFU, WDR75 / Fold change vs veh, WDR75 / RFU, AHCTF1 / Fold change vs veh, AHCTF1 / RFU, TFRC / Fold change vs veh, TFRC / RFU, ZDHHC17 / Fold change vs veh, ZDHHC17 / RFU, NOM1 / Fold change vs veh, NOM1 / RFU, ARL8B / Fold change vs veh, ARL8B / RFU, ZBTB11 / Fold change vs veh, ZBTB11 / RFU, TAMM41 / Fold change vs veh, TAMM41 / RFU, KIAA1704 /// LOC100996395 / Fold change vs veh, KIAA1704 /// LOC100996395 / RFU, ING1 / Fold change vs veh, ING1 / RFU, TRMT61B / Fold change vs veh, TRMT61B / RFU, FUBP3 / Fold change vs veh, FUBP3 / RFU, TP53 / Fold change vs veh, TP53 / RFU, TNKS2 / Fold change vs veh, TNKS2 / RFU, ZFP14 / Fold change vs veh, ZFP14 / RFU, ACTR2 / Fold change vs veh, ACTR2 / RFU, PPP3R1 / Fold change vs veh, PPP3R1 / RFU, PIK3R1 / Fold change vs veh, PIK3R1 / RFU, HNRNPA1 / Fold change vs veh, HNRNPA1 / RFU, RNF170 / Fold change vs veh, RNF170 / RFU, ZNF28 / Fold change vs veh, ZNF28 / RFU, RNGTT / Fold change vs veh, RNGTT / RFU, OGT / Fold change vs veh, OGT / RFU, BRD1 / Fold change vs veh, BRD1 / RFU, MARS / Fold change vs veh, MARS / RFU, ZNF655 / Fold change vs veh, ZNF655 / RFU, FAHD1 / Fold change vs veh, FAHD1 / RFU, BDP1 / Fold change vs veh, BDP1 / RFU, LRRCC1 / Fold change vs veh, LRRCC1 / RFU, ARID1A / Fold change vs veh, ARID1A / RFU, ZNF146 / Fold change vs veh, ZNF146 / RFU, ZNF330 / Fold change vs veh, ZNF330 / RFU, GPN3 / Fold change vs veh, GPN3 / RFU, C9orf123 / Fold change vs veh, C9orf123 / RFU, N4BP2L2 / Fold change vs veh, N4BP2L2 / RFU, ARFIP1 / Fold change vs veh, ARFIP1 / RFU, FAM179B / Fold change vs veh, FAM179B / RFU, BCL10 / Fold change vs veh, BCL10 / RFU, UHRF1BP1L / Fold change vs veh, UHRF1BP1L / RFU, BET1 / Fold change vs veh, BET1 / RFU, CNOT2 / Fold change vs veh, CNOT2 / RFU, ZNF268 / Fold change vs veh, ZNF268 / Fold change vs veh, ZNF507 / RFU, DGCR2 / Fold change vs veh, DGCR2 / RFU, WDSUB1 / Fold change vs veh, WDSUB1 / Fold change vs veh, HSP90B1 /// MIR3652 / RFU, ADSS / Fold change vs veh, ADSS / RFU, GK / Fold change vs veh, GK / RFU, ZNF148 / Fold change vs veh, ZNF148 / RFU, TAF9 / Fold change vs veh, TAF9 / RFU, SLC1A5 / Fold change vs veh, SLC1A5 / RFU, SLMO2 / Fold change vs veh, SLMO2 / RFU, ABCC4 / Fold change vs veh, ABCC4 / RFU, LOC101060439 /// RAP1B / Fold change vs veh, LOC101060439 /// RAP1B / RFU, RFX7 / Fold change vs veh, RFX7 / RFU, GTPBP10 / Fold change vs veh, GTPBP10 / RFU, CNEP1R1 / Fold change vs veh, CNEP1R1 / RFU, BIVM-ERCC5 /// ERCC5 / Fold change vs veh, BIVM-ERCC5 /// ERCC5 / RFU, ILF3 / Fold change vs veh, ILF3 / RFU 11762660_at / Fold change /veh 11762660_at / RFU VCAN (11757783_s_at) / Fold change /veh VCAN (11757783_s_at) / RFU DDX43 (11728927_at) / Fold change /veh DDX43 (11728927_at) / RFU KRT8 (11758188_x_at) / Fold change /veh KRT8 (11758188_x_at) / RFU NKD1 (11759106_at) / Fold change /veh NKD1 (11759106_at) / RFU SRD5A1 (11742802_a_at) / Fold change /veh SRD5A1 (11742802_a_at) / RFU TPSAB1 /// TPSB2 (11721975_s_at) / Fold change /veh TPSAB1 /// TPSB2 (11721975_s_at) / RFU GSTM3 (11746129_a_at) / Fold change /veh GSTM3 (11746129_a_at) / RFU IL23R (11737362_x_at) / Fold change /veh IL23R (11737362_x_at) / RFU TMEM51 (11727254_a_at) / Fold change /veh TMEM51 (11727254_a_at) / RFU PIWIL2 (11732686_x_at) / Fold change /veh PIWIL2 (11732686_x_at) / RFU ORM1 (11744905_x_at) / Fold change /veh ORM1 (11744905_x_at) / RFU CCDC152 (11743942_at) / Fold change /veh CCDC152 (11743942_at) / RFU ECM1 (11717891_a_at) / Fold change /veh ECM1 (11717891_a_at) / RFU IL23R (11748794_a_at) / Fold change /veh IL23R (11748794_a_at) / RFU TNFAIP8L3 (11732012_x_at) / Fold change /veh TNFAIP8L3 (11732012_x_at) / RFU MBOAT4 (11741988_at) / Fold change /veh MBOAT4 (11741988_at) / RFU 11764193_at / Fold change /veh 11764193_at / RFU TMEM53 (11763286_at) / Fold change /veh TMEM53 (11763286_at) / RFU MAGEB2 (11727129_at) / Fold change /veh MAGEB2 (11727129_at) / RFU TMEM200A (11744735_a_at) / Fold change /veh TMEM200A (11744735_a_at) / RFU CCDC152 (11751479_a_at) / Fold change /veh CCDC152 (11751479_a_at) / RFU FAM211A (11726209_a_at) / Fold change /veh FAM211A (11726209_a_at) / RFU RGS16 (11746705_a_at) / Fold change /veh RGS16 (11746705_a_at) / RFU VCAN (11755009_s_at) / Fold change /veh VCAN (11755009_s_at) / RFU RHOB (11743442_s_at) / Fold change /veh RHOB (11743442_s_at) / RFU RGS16 (11720943_a_at) / Fold change /veh RGS16 (11720943_a_at) / RFU RGS16 (11720944_at) / Fold change /veh RGS16 (11720944_at) / RFU, VPS4B / Fold change vs veh, VPS4B / RFU, CREB1 / Fold change vs veh, CREB1 / RFU, DNAJC13 / Fold change vs veh, DNAJC13 / RFU, GNAQ / Fold change vs veh, GNAQ / RFU, CDK5R1 / Fold change vs veh, CDK5R1 / RFU, ZRANB3 / Fold change vs veh, ZRANB3 / RFU, CUL4A / Fold change vs veh, CUL4A / RFU, CCNY / Fold change vs veh, CCNY / RFU, UFL1 / Fold change vs veh, UFL1 / RFU, COG3 / Fold change vs veh, COG3 / RFU, DIAPH2 / Fold change vs veh, DIAPH2 / RFU, SKA2 / Fold change vs veh, SKA2 / RFU, AFF3 / Fold change vs veh, AFF3 / RFU, LMF1 / Fold change vs veh, LMF1 / RFU, IPO11 / Fold change vs veh, IPO11 / RFU, DFFB / Fold change vs veh, DFFB / RFU, FOXP1 / Fold change vs veh, FOXP1 / RFU, CARD8 / Fold change vs veh, CARD8 / RFU, STRN3 / Fold change vs veh, STRN3 / RFU, ADK / Fold change vs veh, ADK / RFU, RASSF2 / Fold change vs veh, RASSF2 / RFU, WIPF1 / Fold change vs veh, WIPF1 / RFU, LARP1B / Fold change vs veh, LARP1B / RFU, RASA1 / Fold change vs veh, RASA1 / RFU, RB1 / Fold change vs veh, RB1 / RFU, PPFIA1 / Fold change vs veh, PPFIA1 / RFU, MAT2A / Fold change vs veh, MAT2A / RFU, CCT5 / Fold change vs veh, CCT5 / RFU, WDR92 / Fold change vs veh, WDR92 / RFU, CUX1 / Fold change vs veh, CUX1 / RFU, TTC7A / Fold change vs veh, TTC7A / RFU, TMEM135 / Fold change vs veh, TMEM135 / RFU, DEPTOR / Fold change vs veh, DEPTOR / RFU, CPM / Fold change vs veh, CPM / RFU, DNAJB6 / Fold change vs veh, DNAJB6 / RFU, CACNA2D3 / Fold change vs veh, CACNA2D3 / RFU, DTX4 / Fold change vs veh, DTX4 / RFU, TFCP2 / Fold change vs veh, TFCP2 / RFU, GMCL1 /// GMCL1P1 / Fold change vs veh, GMCL1 /// GMCL1P1 / RFU, AEBP2 / Fold change vs veh, AEBP2 / RFU, SNHG1 /// SNORD22 /// SNORD25 /// SNORD26 /// SNORD27 /// SNORD28 /// SNORD29 /// SNORD31 / Fold change vs veh, SNHG1 /// SNORD22 /// SNORD25 /// SNORD26 /// SNORD27 /// SNORD28 /// SNORD29 /// SNORD31 / Fold change (Aza/veh), C12orf56 (ProbeSet 11735607_a_at) / Fold change (ACY-1035/veh), C12orf56 (ProbeSet 11735607_a_at) / Fold change (Aza/veh), FGFR1OP (ProbeSet 11751329_s_at) / Fold change (ACY-1035/veh), FGFR1OP (ProbeSet 11751329_s_at) / Fold change (Aza/veh), VPS36 (ProbeSet 11739960_a_at) / Fold change (ACY-1035/veh), VPS36 (ProbeSet 11739960_a_at) / RFU SYPL1 (11715823_x_at) / Fold change /veh SYPL1 (11715823_x_at) / RFU IGFBP7 (11715501_s_at) / Fold change /veh IGFBP7 (11715501_s_at) / RFU REEP3 (11722064_at) / Fold change /veh REEP3 (11722064_at) / RFU IGLL1 (11728026_x_at) / Fold change /veh IGLL1 (11728026_x_at): dose or concentration left out as unconfirmed
Details: ProbeSet 11743882_a_at; LIST D

With `Nc1ccc(-c2cccs2)cc1NC(=O)c1ccc2c(c1)cc(C1CC1)n2CCN1CCOCC1` [ACY-1035] the “Fold change vs veh, STRN3” value was 0.92.
